The record followed here is PMC3329801 (Nature Chemical Biology, 2011).

SMILES strings stand for the structures.

The subject of the experiment is influenza virus NS1 protein levels. Type of experiment: cell-based.

As to `CO[C@H]1C[C@@H]2CC[C@@H](C)[C@@](O)(O2)C(=O)C(=O)N2CCCC[C@H]2C(=O)O[C@H]([C@H](C)C[C@@H]2CC[C@@H](O)[C@H](OC)C2)CC(=O)[C@H](C)/C=C(\C)[C@@H](O)[C@@H](OC)C(=O)[C@H](C)C[C@H](C)/C=C/C=C/C=C/1C` [rapamycin], the “viral protein levels in REDD1+/+ and REDD1−/− cells” value is recorded as “down-regulated viral protein levels”. Under “Fig. S7”, the “influenza virus NS1 protein levels” value is on record as “reduced influenza virus NS1 protein levels”.
With `CCN(CC)CCCC(C)Nc1ccnc2cc(Cl)ccc12` (stereo not drawn) [chloroquine], under “autophagy inhibitor treatment, Fig. S13”, the “viral protein levels in REDD1−/− cells” value is “did not affect viral protein levels”.
